Measured values published in patent publication US5219867A, “Platelet aggregation inhibitory agents” (priority 1992, dated 1993).
Values joined by “and” are separate entries in the source; they are usually repeats but may differ in a detail not shown here. Identical values can stand only once. Counter-ions that a name gives are not always drawn. Like-named read-outs stand apart in the source and are kept apart here.

What was measured:
human platelets = assay: Inhibition of collagen-induced aggregation, washed aequorin-loaded platelet suspension; type: cell-based; settings: for IC50: Homo sapiens, Platelet, collagen-induced aggregation (n = 4), HEPES-buffered saline, 1.0 mM CaCl2, read-out: Ia50 ± S.E. Collagen-induced
Procedure: (§1) Procedure for Cytosolic Ionized Calcium Determination. The basic procedure of Yamaguchi, et al. (Thromb. Res., Vol. 44, Pages 165-174, 1986) was followed. Blood was collected from six blood donors, aged 24-38 years, who had fasted overnight and affirmed abstinence from alcohol, caffeine and medications of any kind for a period of at least one week prior to donation. […] Platelets were collected (800 g, 15 min), resuspended in and washed (800 g, 15 min) with HEPES-buffered saline (140 mM NaCl, 2.7 mM KCl, 0.1% bovine albumin, 0.5% glucose, 3.8 mM HEPES, pH 7.6) with EGTA (5 mM) and PGE1 (1 μM). The platelet pellet was resuspended in 90 μl of the same buffer and added to 20μl of 3 mg/ml aequorin solution in a 1.5 ml Eppendorf centrifuge tube. Six 1 μl aliquots of DMSO were added at 90 second intervals with brief, gentle mixing on a Vortex mixer and the platelet suspension was incubated 2 minutes after the last addition. One ml of HEPES-buffered saline was added, gently mixed, and again incubated for 2 minutes. The platelets were pelleted (1000 g, 30 sec), resuspended in HEPES-buffered saline to which was added either 1 mM Mg Cl2, (calcium-free buffer) or 1 mM Mg Cl2 and 1 mM Ca Cl2 (calcium buffer), depending on the experiment. The platelet count was adjusted to 3-4×10^5 platelets/μl.
(§2) The Platelet Ionized Calcium Aggregometer (Chrono-Log Corp., Ltd., Havertown, Pa.) was used to obtain simultaneous aggregation and luminescence data under the following experimental conditions: (1) platelet suspension, 1 ml, was equilibrated at 37° C. with stirring at 1100 rpm; (2) 100 μl (1.2 μg) of fibrinogen was added; (3) the vehicle (95% ethanol) or the test compound in vehicle was added; (4) when needed, 10 μl of the desired concentration of EGTA was added 30 seconds prior to addition of the agonist; then (5) the agonist (Collagen, 5 μg or 20 μg) was added and the time noted. At one minute after addition of the agonist in Channel 1, a platelet sample containing fibrinogen in Channel 2 was lysed with 10 μl of a 1:1 solution of Triton X-100 (final concentration 0.005%) 10 mM CaCl2 (final concentration 0.5 mM). Treated and control […] data were corrected for time dependent decay of fluorescence using data from the untreated lysed controls.
(§3) Normally 4 compound-treated samples (at 4 different concentrations) interspersed with 3 control samples were evaluated at 4.5 minute intervals starting 18-23 minutes after the DMSO treatment. The Ia50 values were calculated as described earlier. The compound concentrations effecting 50% inhibition (Ica50) of collagen-induced cytosolic ionized calcium values was determined by linear regression analysis.
Compounds I-rac, (+)-I,(IC) and (-)-I(IA) were evaluated. The Ia50 (collagen-induced aggregation) and Ica50 (compound concentration required to inhibit by 50% the collagen-induced rise in cytosolic ionized calcium)values determined with platelet suspensions in HEPES-buffered saline containing 1.0 mM CaCl2 were as follows: […]

[1] = test system: cytosolic ionized calcium in human platelets; assay: Inhibition of collagen-induced rise in cytosolic ionized calcium (aequorin luminescence); type: cell-based; settings: for IC50: 1mM [Ca2+]o (n = 4), read-out: Ica50 ± S.E. Collagen-induced (50% inhibition of collagen-induced rise in cytosolic ionized calcium)
Procedure: as §1, §2, §3
Compounds I-rac, (+)-I,(IC) and (-)-I(IA) were evaluated. The Ia50 (collagen-induced aggregation) and Ica50 (compound concentration required to inhibit by 50% the collagen-induced rise in cytosolic ionized calcium)values determined with platelet suspensions in HEPES-buffered saline containing 1.0 mM CaCl2 were as follows:
Collagen-stimulation of platelets suspended in media containing 1.0 mM of Ca^2+ (FIG. 13) or 1.0 mM (FIG. 14A) or 2.0 mM (FIG. 14B) EGTA (a calcium chelator) gave […] cytosolic ionized calcium peak (aequorin-indicated luminescence). Contrarily, two phases of Ca^2+ mobilization were observed when aequorin-loaded human platelets suspended in a medium containing 0.1 mM EGTA were stimulated with collagen (FIG. 14, designation D). The first corresponded to platelet shape change and the second peak to aggregation. […] The platelet suspension (1.0 ml) was pre-incubated with 1.0 μl of (A) 95% ethanol, (B) a solution of Compound I (14.59 μM) in 95% ethanol, or (C) a solution of Compound I (23.87 μM) in 95% ethanol. Collagen (20 μg) was added at time indicated by the arrows. Luminescence was again recorded at a gain of 0.5. […] Accordingly, the stereo-selective inhibitory properties of the compounds of the present invention appear to be mediated through the inhibition of [Ca^2+ ].

male ICR mice = assay: Mouse antithrombotic assay (collagen-epinephrine thromboembolic death); type: in vivo; settings: for ED50: ip, 30 min before i.v. collagen-epinephrine challenge, read-out: ED50 (protection from thromboembolic death)
Procedure: The method employed is similar to Myers, et al's (Proc. Soc. Exp. Biol. Med., Vol. 183, Pages 86-91, 1986) modification of the procedure of DiMinno and Silver (J. Pharmacl. Exp. Therap., Vol. 225, Pages 57-60, 1983). Male ICR mice 25 g-35 g were used in this study. Collagenreagent Horm, containing 1 mg/ml of native collagen fibrils from equine tendons suspended in isotonic glucose solution of pH 2.7 was obtained from Horm -Chemie Momchem GMBH, Munchen, Germany; Epinephrine Injection, USP 1 mg/ml was from Abbott Laboratories, North Chicago, Ill.
Rac.I.2HBr was dissolved in physiological saline and (+)-I (I-C) was dissolved in saline at pH 6.5 at a concentration which yielded the desired dosage when 10 ml/kg of the compound solution was injected intraperitoneally (i.p.) to the mouse. Control mice received 10 ml/kg of the solvent/vehicle intraperitoneally.
Thirty (30) minutes after administration of test compound, the mouse was challenged with intravenous collagen-epinephrine suspension. The procedure is as follows: Fifteen (15) minutes after i.p. administration of test compound, the mouse was given 50-60 mg/kg of pentobarbital sodium (Nembutal). About 10-12 minutes later (when the mouse was anesthetized) the jugular vein was surgically exposed in preparation for the intravenous collagen-epinephrine injection.
Thirty (30) minutes after i.p. administration of the test compound (and about 15 minutes after i.p. Nembutal) the mouse's platelets were challenged with 0.00333 ml/gm (0.10 ml/30 gm mouse) of the intravenous collagen-epinephrine suspension into the jugular vein. [The collagen-epinephrine suspension contained 0.15 mg collagen fibrils and 0.018 mg of epinephrine per ml of the suspension]. The rate of injection for the collagen-epinephrine suspension was consistent from one mouse to the next.
Graded doses of the compound were administered to mice prior to the aggregation challenge. The ED50 was determined graphically from a Probit-log plot of percent of mice protected (Probit) by each dose (log scale) of the compound. […]

SMILES | IC50 (human platelets) [µM] | Effect on platelet shape change peak and aggregation peak of Ca2+ mobilization ([1]; 0.1 mM EGTA, collagen 20 μg, Compound I 14.59 μM or 23.87 μM (FIG. 15)) | IC50 ([1]; Homo sapiens, Platelet, collagen-induced) [µM] | ED50 (male ICR mice) | Potency in inhibiting aggregation relative to (-)-I (human platelets; collagen as agonist, in vitro) [times] | IC50 ([1]; collagen-induced, listed as IC (+)-I, dihydrobromide) [µM] | Potency in inhibiting the rise of cytosolic ionized calcium compared to racemic I, I-A and IB ([1]; collagen-induced, Ca2+-containing medium) | Potency in protecting mice from thromboembolic death relative to racemic I.2HBr (male ICR mice; i.p.)
CCN(CC)C(=O)C1CCCN(Cc2ccc(CN3CCCC(C(=O)N(CC)CC)C3)cc2)C1 (racemic) [Compound I, α-α'-Bis[3-(N,N-diethyl-carbamoyl)piperidino]-p-xylene dihydrobromide] | 20.2 | inhibited both the platelet shape change peak and the aggregation peak | 21.2 | 104 mg/kg and 164 µmol/kg | – | – | – | –
CCN(CC)C(=O)C1CCCN(Cc2ccc(CN3CCCC(C(=O)N(CC)CC)C3)cc2)C1 (single isomer, unassigned) [IC, α-α'-Bis(3-N,N-diethylcarbamoyl)piperidino]-p-xylene dihydrobromide] | 10.7 ± 2.7 | – | – | 33.5 mg/kg and 71.2 µmol/kg | 18 | 3.6 ± 1.2 | much more potent | approximately three times more potent
